Laboratory results taken from PMC11939361, “diAcCA, a Pro-Drug for Carnosic Acid That Activates the Nrf2 Transcriptional Pathway, Shows Efficacy in the 5xFAD Transgenic Mouse Model of Alzheimer’s Disease” (Antioxidants, 2025).
Entries after “also recorded” stand apart in the source; their conditions may differ.

What was measured:
[1] = test system: 5xFAD mice; test: Quantitative confocal immunohistochemistry (Q-IHC) of hippocampal sections; format: in vivo, mouse
Experimental: The 5xFAD mice bear five mutations linked to AD. Three of these are in the App695 gene [Swedish (APP K670N/M671L), Florida (I716V), London (V717I)], and two are in the PSEN1 gene [L286V, M146L]. Male 5xFAD breeder mice were obtained from Jackson Laboratories (#034848-JAX, Bar Harbor, ME, USA) and crossed with female 6XC57BL6 mice. Genotyping was performed by PCR. First-generation pups were used for all experiments with 5xFAD transgenic (Tg) and WT littermate control mice.
diAcCA or control vehicle was administered three times per week for 3 months to 5xFAD Tg or WT littermate control mice starting at approximately 5 months of age by oral gavage (designated here as “per os” or PO). Three different doses were used (10 mg/kg, 20 mg/kg, or 50 mg/kg). diAcCA was dissolved in olive oil vehicle, a non-polar organic solvent. For vehicle control, we administered olive oil alone. A total of 45 animals were used in this study, with 7–8 animals in each group.
For euthanasia, animals were deeply anesthetized with isoflurane and then transcardially perfused with ice-cold phosphate-buffered saline (PBS) followed by 4% paraformaldehyde (PFA) for fixation. Brains were isolated and post-fixed in 4% PFA overnight at 4 °C. The next day, brains were washed and transferred to 30% sucrose at 4 °C until sectioning. Every brain then received a masked code for the following steps, and the code was only broken after all quantifications were completed.
Sagittal sections (40 μm-thick) were prepared using a vibratome (Leica VT1200S) and incubated in blocking buffer (5% goat serum, 0.5% Triton X-100 in PBS) for 1 h at room temperature to prevent non-specific binding. Following blocking, floating sections were incubated in their respective primary antibody solutions on a shaker overnight at 4 °C. Antibodies against the following proteins were used in this study: NeuN (D4G4O, 1:500, rabbit mAb #24307, Cell Signaling Technology, Danvers, MA, USA), Synapsin I (D12G5, 1:500, rabbit mAb #5297, Cell Signaling Technology), phosphor (Ser202, Thr205)-tau (AT8, 1:500, mAb #MN1020, ThermoFisher Scientific, Waltham, MA, USA), glial fibrillary acidic protein (GFAP) (GA5, 1:500, MAB360, Millipore Sigma, Carlsbad, CA, USA), ionized calcium binding adaptor molecule 1 (Iba1) (EPR16589, 1:1000, #ab178847, Abcam, Waltham, MA, USA), human nuclear antigen (HuNu) (1:500, mouse mAb #191181, Abcam), and caspase-1 (1:50, rabbit pAb #AB1871, Sigma Aldrich, St. Louis, MO, USA). For Aβ staining, floating sections were pre-treated with 90% formic acid (28905, Thermo Scientific) for 1 min at room temperature. They were then rinsed and blocked, following which they were incubated in anti-β-amyloid 17–24 antibody (4G8, 1:1000, #800708, BioLegend, San Diego, CA, USA) on a shaker overnight at 4 °C.
The next day, immunostaining was performed on brain sections after 3 washes in PBS and incubation in the appropriate secondary antibody solution on a shaker for 2 h at room temperature. Secondary antibodies included Alexa 488 (A11008, 1:500, goat anti-rabbit, Life Technologies, Carlsbad, CA, USA) and Alexa 555 (A21424, 1:500, goat anti-mouse, Life Technologies). The sections were again washed with PBS 3 times, mounted on Superfrost plus slides (12-550-15, Fisher Scientific, Waltham, MA, USA) and dried at room temperature. The slides were then coated with Vectashield plus antifade mounting medium, stained with nuclear dye DAPI (H-2000, Vector Laboratories, San Francisco, CA, USA), and a coverslip (12541057, Fisher Scientific) was applied. For each brain, 3–6 images were acquired for each individual marker using a confocal fluorescence microscope (Nikon Eclipse Ti2) (Figure 1, Figure 2 and Figure 3, Supplementary Figure S1). Post image processing, quantification was performed using Fiji ImageJ (1.54f). For the Iba1-stained slides, a mask was made of cells co-labeled for HuNu and Iba1, and then caspase 1 staining was measured. […]

[2] = Shelf life / stability of the compound over time; format: physicochemical; conditions: storage (CA: even if kept in the dark and cold)
[3] = 5xFAD hippocampus, 10, 20 or 50 mg/kg PO three times a week for 3 months vs vehicle

## CC(=O)Oc1c(C(C)C)cc2c(c1OC(C)=O)[C@@]1(C(=O)O)CCCC(C)(C)[C@@H]1CC2 [diAcCA]
[1]; [3]
  GFAP MFI, astrocytes: significantly improved; also recorded: reduced GFAP MFI
  Iba1 integrated density (ID), microglial density: significantly improved; also recorded: improved IBA ID
  NeuN mean fluorescence intensity (MFI), neuronal density: significantly improved; also recorded: restored NeuN MFI (representing neuronal number) to near normal levels
  Synapsin I MFI, presynaptic density: significantly improved; also recorded: restored Synapsin I MFI (located in the presynaptic terminal of the synapse) to near normal levels
  percent area of Aβ accumulation (4G8): significantly reduced the area of Aβ accumulation; also recorded: significantly reduced the area of Aβ aggregates
[1]; 5xFAD hippocampus, each treatment dose (10, 20, 50 mg/kg PO, 3 months) vs vehicle
  percentage area of pTau aggregates (AT8): remarkable decrease in the area of pTau aggregates; also recorded: dramatically reduced the area of pTau aggregates
[2]
  shelf life / stability over time: stable in our hands for over two years
[2]; listed as diAcCa
  shelf life / stability over time: stable shelf life (of over two years)
